Data on 16 compounds can be found in article PMC9133232 (Cell chemical biology, 2022).

Where two headings read alike, the source gives them in different places.

Data set [1] has as its target HCMV C-A (HCMV Pr C84A, C87A, C138A, C202A) (Human cytomegalovirus, UniProt P16753, A143V/A209V/C138A/C202A/C84A/C87A). The data set can be described thus: biochemical.
The next data set concerns the target HSV1 Pr (Human herpesvirus 1, UniProt P10210). Kind of data set: Fluorogenic substrate inhibition assay, HSV1 Pr. The data set is classed as biochemical.
The target of data set [2] is T1, HCMV C-A S225M (Human cytomegalovirus, UniProt P16753, A143V/A209V/C138A/C202A/C84A/C87A/S225M). Kind of data set: Time-course inhibitor labeling by intact protein LC/MS, HCMV C-A S225M dimer. The data set is classed as binding. The settings on record: time course in the absence of DTT.
The subject of a further data set is EBV Pr. Kind of data set: Fluorogenic substrate inhibition assay, EBV Pr. The settings on record: read-out: IC50 EBV Pr; one hour incubation. The data set is classed as biochemical, Epstein-Barr virus.
In data set [3] the target is T2, HCMV C-A (Human cytomegalovirus, UniProt P16753, A143V/A209V/C138A/C202A/C84A/C87A). The data set can be described thus: Time-course inhibitor labeling by intact protein LC/MS, HCMV C-A. The data set is classed as binding. The note with it: time course in the absence of DTT.
Data set [4] concerns the target T2, HCMV C-A. The note with it: for t1/2 HCMV C-A: 0.693 divided by kinact.
The target in data set [5] is T1, HCMV C-A S225M. Kind of data set: KI and kinact determination, HCMV C-A S225M. The data set is classed as biochemical.
The target in another data set is T3, WT HCMV Pr (Human cytomegalovirus, UniProt P16753, A143V/A209V).
T3 sequence (P16753 1-256 A143V/A209V): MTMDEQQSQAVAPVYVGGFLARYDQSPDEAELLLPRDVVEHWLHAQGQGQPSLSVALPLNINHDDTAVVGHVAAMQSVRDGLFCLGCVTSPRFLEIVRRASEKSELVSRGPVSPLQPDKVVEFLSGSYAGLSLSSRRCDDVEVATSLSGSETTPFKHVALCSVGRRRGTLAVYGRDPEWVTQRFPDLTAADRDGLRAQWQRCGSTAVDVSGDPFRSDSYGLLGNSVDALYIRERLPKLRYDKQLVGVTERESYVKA
The data set can be described thus: biochemical. Format: biochemical.

Data set [6] deals with T4, HCMV C-A (C161) (Human cytomegalovirus, UniProt P16753, A143V/A209V/C138A/C202A/C84A/C87A). The data set is classed as binding. The settings on record: 5 μM protein in Tris, 50 μM compound, overnight.
Data set [7] has as its target T2, HCMV C-A. Kind of data set: biochemical.
Data set [8] relates to HFF-1 cells. The data set can be described thus: Cytotoxicity determined in parallel to antiviral EC50. The note with it: over the course of the antiviral assay.
In data set [9] the test system is HFF-1 cells. Kind of data set: Cell death three days post-reinfection. Format: cell-based, human.
Data set [10] concerns the target T2, HCMV C-A. Kind of data set: In-gel fluorescence competition assay in HFF-1 cell lysate. The data set is classed as binding.
In data set [11] the target is T2, HCMV C-A. The data set can be described thus: In-gel fluorescence direct detection assay in HFF-1 cell lysate. The data set is classed as binding. The settings on record: read-out: EC50 reactivity with HCMV C-A (direct in-gel fluorescence); HFF-1 cell lysates.
Data set [12] deals with T4, HCMV C-A (C161). Format: binding. The note with it: intact protein LC/MS.
Data set [13] deals with Human Cytomegalovirus Protease C84A, C87A, C138A, C202A, S225M (human cytomegalovirus) (UniProt P16753). Kind of data set: SEC.

Turning to `O=C(CCl)Cn1nnc(-c2ccccc2)c1COC(=O)NCc1ccccc1` [Compound 43, (1-(3-Chloro-2-oxopropyl)-4-phenyl-1H-1,2,3-triazol-5-yl)methyl benzylcarbamate], the IC50 in [1] was 33 µM; at HSV1 Pr, more than 1000 µM; with EBV Pr, 2 µM; against WT HCMV Pr, 4 µM. At HCMV C-A S225M [2], the “final protein labeling HCMV C-A S225M” value was determined as 100%. Also, the “final protein labeling HCMV C-A” value on HCMV C-A [3] is reported as 100%. The “kinact HCMV C-A” value on HCMV C-A [4] was determined as 0.024 min⁻¹. In addition, the “kinact/KI HCMV C-A” value on HCMV C-A [4] was 0.0027 min⁻¹ µM⁻¹. Further, the “t1/2 HCMV C-A” value on HCMV C-A [4] was 29 min. For the same compound, the “kinact HCMV C-A S225M” value at HCMV C-A S225M [5] is 0.011 min⁻¹. The “labeling of HCMV C-A at C161” value at HCMV C-A (C161) [6] turned out to be 100%. At HCMV C-A [7], this compound registered a Ki of 9 µM. Also, in the data set with HFF-1 cells [8], the “CC50 in parallel to antiviral EC50” value stood at 11 μΜ. Further, the “cell death three days post-reinfection” value in the data set with HFF-1 cells [9] is given as “minimal”. Also, the EC50 on HCMV C-A [10] turned out to be 3 µM.

Turning to `O=C(CCl)Cn1cc(-c2ccc(Br)cc2)nn1` [Compound 36, 1-(4-(4-Bromophenyl)-1H-1,2,3-triazol-1-yl)-3-chloropropan-2-one], the 50% inhibitory concentration (IC50) was determined as 25 µM in data set [1], 35 µM against HSV1 Pr, 17 µM in the data set with EBV Pr and 5 µM on WT HCMV Pr.

Turning to `COCCNC(=O)OCc1c(-c2ccccc2)nnn1CC(=O)CCl` [Compound 44, (1-(3-Chloro-2-oxopropyl)-4-phenyl-1H-1,2,3-triazol-5-yl)methyl (2-methoxyethyl)carbamate], the IC50 turned out to be 54 µM in data set [1], 840 µM against HSV1 Pr, 12 µM in the data set with EBV Pr and 13 µM against WT HCMV Pr. Further, at HCMV C-A [4], the “kinact HCMV C-A” value stood at 0.022 min⁻¹. Besides, the “kinact/KI HCMV C-A” value at HCMV C-A [4] worked out at 0.00076 min⁻¹ µM⁻¹. The “t1/2 HCMV C-A” value at HCMV C-A [4] was 31 min. This compound also gave a Ki on HCMV C-A [7] of 29 µM.

As to `CN(C)C(=O)OCc1c(-c2ccccc2)nnn1CC(=O)CCl` [Compound 42, (1-(3-Chloro-2-oxopropyl)-4-phenyl-1H-1,2,3-triazol-5-yl)methyl dimethylcarbamate], the IC50 in [1] was 101 µM; against HSV1 Pr, more than 1000 µM; against WT HCMV Pr, 33 µM.

As for `CNC(=O)OCc1c(-c2ccccc2)nnn1CC(=O)CCl` [Compound 41, (1-(3-Chloro-2-oxopropyl)-4-phenyl-1H-1,2,3-triazol-5-yl)methyl methylcarbamate], the IC50 was 60 µM in [1], more than 1000 µM at HSV1 Pr, 7 µM in the data set with EBV Pr and 68 µM on WT HCMV Pr.

`C#CCNC(=O)OCc1c(-c2ccccc2)nnn1CC(=O)CCl` [Compound 48]: at HCMV C-A [11], the EC50 stood at 4 µM. On WT HCMV Pr (read-out: IC50 WT HCMV Pr, one hour incubation), the IC50 came out at 8 µM.

On to `O=C(CCl)Cn1cc(-c2ccc(Cl)cc2)nn1` [Compound 37, 1-Chloro-3-(4-(4-chlorophenyl)-1H-1,2,3-triazol-1-yl)propan-2-one], for which the half-inhibitory concentration (IC50) in data set [1] came to 32 µM; against HSV1 Pr, 98 µM; in the data set on EBV Pr it was 11 µM; against WT HCMV Pr, 5 µM.

`O=C(CCl)Cn1cc(-c2ccccc2)nn1` [Compound 31, 1-Chloro-3-(4-phenyl-1H-1,2,3-triazol-1-yl)propan-2-one]: the 50% inhibitory concentration (IC50) in [1] worked out at 25 µM. At HCMV C-A [4], the “kinact HCMV C-A” value was 0.026 min⁻¹, the “kinact/KI HCMV C-A” value came to 0.00068 min⁻¹ µM⁻¹ and the “t1/2 HCMV C-A” value was found to be 26 min. Besides, 33 µM corresponded to half-maximal inhibition against WT HCMV Pr (IC50). Besides, on HCMV C-A [7], the inhibition constant Ki is 38 µM. Besides, the “reactivity with C161 (labeling of HCMV C-A)” value on HCMV C-A (C161) [12] is recorded as “showed reactivity with C161”.

Consider `O=C(CCl)Cn1cc(-c2cccc(Cl)c2)nn1` [Compound 38, 1-Chloro-3-(4-(3-chlorophenyl)-1H-1,2,3-triazol-1-yl)propan-2-one], for which the half-inhibitory concentration (IC50) in [1] turned out to be 30 µM; on HSV1 Pr it was 145 µM; in the data set with EBV Pr, 8 µM; against WT HCMV Pr, 6 µM.

As to `O=C(CCl)Cn1nnc(-c2ccccc2)c1COC(=O)N1CCOCC1` [Compound 45, (1-(3-Chloro-2-oxopropyl)-4-phenyl-1H-1,2,3-triazol-5-yl)methyl morpholine-4-carboxylate], the IC50 in [1] turned out to be 66 µM; against HSV1 Pr, 670 µM; with EBV Pr, 4 µM; on WT HCMV Pr, 53 µM. The “kinact HCMV C-A” value at HCMV C-A [4] worked out at 0.020 min⁻¹. In addition, the “kinact/KI HCMV C-A” value on HCMV C-A [4] was 0.00077 min⁻¹ µM⁻¹. Moreover, at HCMV C-A [4], the “t1/2 HCMV C-A” value amounted to 35 min. This compound returned a Ki on HCMV C-A [7] of 26 µM.

On to `N#Cc1ccc(-c2cn(CC(=O)CCl)nn2)cc1` [Compound 35, 4-(1-(3-Chloro-2-oxopropyl)-1H-1,2,3-triazol-4-yl)benzonitrile], for which the half-maximal inhibitory concentration (IC50) was 33 µM in [1], 207 µM against HSV1 Pr, 21 µM in the data set with EBV Pr and 11 µM against WT HCMV Pr.

As for `O=C(CCl)Cn1nnc(-c2ccccc2)c1COC(=O)NCCCN1CCCC1=O` [Compound 47, (1-(3-Chloro-2-oxopropyl)-4-phenyl-1H-1,2,3-triazol-5-yl)methyl (3-(2-oxopyrrolidin-1-yl)propyl)carbamate], half-maximal inhibition in data set [1] (IC50) was put at 135 µM. Besides, at HCMV C-A [4], the “kinact HCMV C-A” value turned out to be 0.016 min⁻¹, the “kinact/KI HCMV C-A” value is 0.00076 min⁻¹ µM⁻¹ and the “t1/2 HCMV C-A” value is recorded as 44 min. This compound showed an inhibition constant (Ki) at HCMV C-A [7] of 21 µM.

In turn, `O=C(CCl)Cn1nnc(-c2ccccc2)c1COC(=O)NCCN1CCOCC1` [Compound 46, (1-(3-Chloro-2-oxopropyl)-4-phenyl-1H-1,2,3-triazol-5-yl)methyl (2-morpholinoethyl)carbamate] showed an IC50 in data set [1] of 182 µM.

“Human Cytomegalovirus Protease C84A, C87A, C138A, C202A, S225M (from UniProt P16753 1-256) (enzyme)” returned a stoichiometry N in data set [13] of 2.

For `CC(=O)Nc1cccc(-c2cn(CC(=O)CCl)nn2)c1` [Compound 39, N-(3-(1-(3-Chloro-2-oxopropyl)-1H-1,2,3-triazol-4-yl)phenyl)acetamide], the concentration for half-maximal inhibition (IC50) in [1] was found to be 46 µM; at HSV1 Pr, 188 µM; in the data set with EBV Pr it was 52 µM; at WT HCMV Pr, 18 µM.

For `O=C(CCl)Cn1cc(-c2ccc([N+](=O)[O-])cc2)nn1` [Compound 34, 1-Chloro-3-(4-(4-nitrophenyl)-1H-1,2,3-triazol-1-yl)propan-2-one], the IC50 was determined as 22 µM in data set [1], 51 µM against HSV1 Pr and 6 µM at WT HCMV Pr.
